Reference: patent US20130102595A1 (Curis, Inc., priority 2011, published 2013)

Assays:
[1] = tested on: HDACs (HeLa cell nuclear extracts); assay: HDAC enzymatic activity, Biomol Color de Lys system; assay type: biochemical; conditions: 1 hour, 25° C.
Experimental: (E) an In Vitro Assay which Determines the Ability of a Test Compound to Inhibit HDAC Enzymatic Activity.
HDAC inhibitory activity was assessed using the Biomol Color de Lys system (AK-500, Biomol, Plymouth Meeting, Pa.). Briefly, HeLa cell nuclear extracts were used as a source of HDACs. Different concentrations of test compounds were serially diluted in dimethylsulphoxide (DMSO) and added to HeLa cell nuclear extracts in the presence of a colorimetric artificial substrate. Final assay condition contained 50 mM Tris/Cl, pH 8.0, 137 mM NaCl, 2.7 mM KCl and 1 mM MgCl2. Reactions were carried in room temperature (25° C.) for 1 hour before addition of developer for termination. Relative enzyme activity was measured in the WALLAC Victor II 1420 microplate reader as fluorescence intensity (excitation: 350-380 nm; emission: 440-460 nm). Data were analyzed using GraphPad Prism (v4.0a) with a sigmoidal dose response curve fitting for IC50 calculation.

PI3Kα (p110α/p85α) = target: T1, PI3Kα (p110α/p85α) (Homo sapiens, UniProt P42336); assay: PI3Kα ADP-Glo assay; assay type: biochemical; conditions: 20 μM PIP2, 10 μM ATP, 30 minutes
T1 construct: GST (N); made in house; host or cells: Baculovirus-infected Sf9 cells
Experimental: (A) an In Vitro Assay which Determines the Ability of a Test Compound to Inhibit PI3Kα.
Activity of PI3Kα was measured using ADP-Glo assay from Promega. PI3Kα, a complex of N-terminal GST-tagged recombinant full-length human p110α (GenBank, Accession No. U79143) and N-terminal His tagged recombinant full length human p85a (GenBank Accession No. XM—043865) were co-expressed in a Baculovirus infected Sf9 cell expression system. The ADP-Glo assay was performed to measure the amount of ADP generated from ATP hydrolysis coupled with PIP2 phosphorylation by the purified recombinant PI3Kα (p110α/p85α). PI3Kα was incubated with 20 μM PIP2 substrate in the reaction buffer (50 mM HEPES, pH 7.4, 150 mM NaCl, 5 mM MgCl2, 1 mM DTT, 3 uM Naorthovanadate, 10 μM ATP and 0.5% DMSO) for 30 minutes at room temperature. The ADP generated was then detected by ADP-Glo assay from Promega, a luminescent ADP detection assay. The ADP-Glo assay is performed in two steps; first, after the kinase reaction, ADP-Glo Reagent is added to terminate the kinase reaction and deplete the remaining ATP. Second, the Kinase Detection Reagent is added to simultaneously convert ADP to ATP and allow the newly synthesized ATP to be measured using a luciferase/luciferin reaction.

T1 sequence (P42336 whole entry): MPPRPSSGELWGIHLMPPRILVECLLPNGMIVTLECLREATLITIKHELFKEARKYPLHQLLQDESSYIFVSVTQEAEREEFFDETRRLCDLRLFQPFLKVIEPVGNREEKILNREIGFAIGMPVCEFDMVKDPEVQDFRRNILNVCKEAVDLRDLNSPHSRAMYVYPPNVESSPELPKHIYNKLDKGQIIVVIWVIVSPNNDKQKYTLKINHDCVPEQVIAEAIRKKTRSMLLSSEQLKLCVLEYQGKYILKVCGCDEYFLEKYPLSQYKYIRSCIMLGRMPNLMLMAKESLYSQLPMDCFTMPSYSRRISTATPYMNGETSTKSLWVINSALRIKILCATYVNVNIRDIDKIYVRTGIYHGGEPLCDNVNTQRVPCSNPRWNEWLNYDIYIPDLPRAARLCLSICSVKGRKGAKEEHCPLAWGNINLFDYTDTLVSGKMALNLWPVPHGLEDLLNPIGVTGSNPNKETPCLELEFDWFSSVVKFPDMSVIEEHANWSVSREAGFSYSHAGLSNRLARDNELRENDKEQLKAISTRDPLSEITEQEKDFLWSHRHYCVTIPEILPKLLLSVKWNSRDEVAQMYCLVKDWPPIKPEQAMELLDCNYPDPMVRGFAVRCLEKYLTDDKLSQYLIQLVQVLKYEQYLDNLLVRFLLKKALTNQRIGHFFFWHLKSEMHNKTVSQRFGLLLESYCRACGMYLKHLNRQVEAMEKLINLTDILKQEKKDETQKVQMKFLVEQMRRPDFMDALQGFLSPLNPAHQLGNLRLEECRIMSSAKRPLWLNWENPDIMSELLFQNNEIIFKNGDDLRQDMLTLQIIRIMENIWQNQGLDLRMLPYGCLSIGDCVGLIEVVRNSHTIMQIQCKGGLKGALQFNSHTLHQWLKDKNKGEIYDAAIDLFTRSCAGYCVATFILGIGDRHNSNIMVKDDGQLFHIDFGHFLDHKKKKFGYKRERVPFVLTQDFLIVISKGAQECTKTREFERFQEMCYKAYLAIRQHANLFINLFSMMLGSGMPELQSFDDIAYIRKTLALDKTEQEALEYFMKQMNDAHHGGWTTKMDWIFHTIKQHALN
T1 sequence (P27986 whole entry partner): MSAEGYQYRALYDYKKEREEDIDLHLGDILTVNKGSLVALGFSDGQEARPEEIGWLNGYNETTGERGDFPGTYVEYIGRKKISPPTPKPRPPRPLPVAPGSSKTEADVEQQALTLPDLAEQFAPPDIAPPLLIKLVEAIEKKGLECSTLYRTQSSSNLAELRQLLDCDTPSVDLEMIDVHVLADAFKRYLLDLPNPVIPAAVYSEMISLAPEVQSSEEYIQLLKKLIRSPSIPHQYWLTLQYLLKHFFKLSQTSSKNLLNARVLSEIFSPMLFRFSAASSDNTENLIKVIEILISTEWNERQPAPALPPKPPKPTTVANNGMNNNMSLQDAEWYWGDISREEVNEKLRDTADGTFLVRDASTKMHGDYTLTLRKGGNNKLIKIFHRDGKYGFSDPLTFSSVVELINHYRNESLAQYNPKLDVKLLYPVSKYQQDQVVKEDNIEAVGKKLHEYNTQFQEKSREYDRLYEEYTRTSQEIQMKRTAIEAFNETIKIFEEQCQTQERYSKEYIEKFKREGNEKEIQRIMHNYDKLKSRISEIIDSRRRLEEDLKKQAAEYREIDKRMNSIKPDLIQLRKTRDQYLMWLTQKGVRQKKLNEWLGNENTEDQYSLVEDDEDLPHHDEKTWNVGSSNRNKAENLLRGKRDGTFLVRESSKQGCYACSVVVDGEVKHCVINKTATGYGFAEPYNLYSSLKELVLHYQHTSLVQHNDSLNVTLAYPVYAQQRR

Structure (SMILES)	IC50 [1]	IC50 (PI3Kα (p110α/p85α))	melting point
CC(O)c1ccc(F)c(-c2nc(N3CCOCC3)c3sc(CN(C)c4ncc(C(=O)NO)cn4)cc3n2)c1 (stereo not shown) [Compound 295, 2-(((2-(2-Fluoro-5-(1-hydroxyethyl)phenyl)-4-morpholinothieno[3,2-d]pyrimidin-6-yl)methyl)(methyl)amino)-N-hydroxypyrimidine-5-carboxamide]	< 100 nM	100 to 1000 nM	230 to 235 °C
CCNc1ccc(-c2nc(N3CCOCC3)c3sc(CN(C)c4ncc(C(=O)NO)cn4)cc3n2)cc1 [Compound 153, 2-(((2-(4-(ethylamino)phenyl)-4-morpholinothieno[3,2-d]pyrimidin-6-yl)methyl)(methyl)amino)-N-hydroxypyrimidine-5-carboxamide]	< 100 nM	> 10000 nM	185 to 187 °C
O=C(CCCCNCc1cc2nc(-c3cccc4[nH]ncc34)nc(N3CCOCC3)c2s1)NO [Compound 42, 5-((2-(1H-indazol-4-yl)-4-morpholinothieno[3,2-d]pyrimidin-6-yl)methylamino)-N-hydroxypentanamide]	< 100 nM	1000 to 10000 nM	145 to 147 °C
CCCN(Cc1cc2nc(-c3cccc4[nH]ncc34)nc(N3CCOCC3)c2s1)c1ncc(C(=O)NO)cn1 [Compound 84, 2-(((2-(1H-indazol-4-yl)-4-morpholinothieno[3,2-d]pyrimidin-6-yl)methyl)(propyl)amino)-N-hydroxypyrimidine-5-carboxamide]	< 100 nM	< 100 nM	224 to 226 °C
Nc1ncc(-c2nc(N3CCOCC3)c3sc(NCCCCCCC(=O)NO)cc3n2)cn1 [Compound 234, 7-[2-(2-Amino-pyrimidin-5-yl)-4-morpholin-4-yl-thieno[3,2-d]pyrimidin-6-ylamino]-heptanoic acid hydroxyamide]	< 100 nM	< 100 nM	235 to 240 °C
CS(=O)(=O)N1CCN(Cc2cc3nc(-c4ccc(OCCCCC(=O)NO)cc4)nc(N4CCOCC4)c3s2)CC1 [Compound 319, N-Hydroxy-5-(4-(6-((4-(methylsulfonyl)piperazin-1-yl)methyl)-4-morpholinothieno[3,2-d]pyrimidin-2-yl)phenoxy)pentanamide]	100 to 1000 nM	100 to 1000 nM	140 to 144 °C
Nc1ncc(-c2nc(N3CCOCC3)c3sc(NCCCCCC(=O)NO)cc3n2)cn1 [Compound 232, 6-[2-(2-Amino-pyrimidin-5-yl)-4-morpholin-4-yl-thieno[3,2-d]pyrimidin-6-ylamino]-hexanoic acid hydroxyamide]	< 100 nM	< 100 nM	220 to 225 °C
O=C(CCCNCc1cc2nc(-c3cccc4[nH]ncc34)nc(N3CCOCC3)c2s1)NO [Compound 41, 4-((2-(1H-indazol-4-yl)-4-morpholinothieno[3,2-d]pyrimidin-6-yl)methylamino)-N-hydroxybutanamide]	< 100 nM	100 to 1000 nM	149 to 152 °C
CN(Cc1cc2nc(-c3cccc4[nH]ccc34)nc(N3CCOCC3)c2s1)c1ncc(C(=O)NO)cn1 [Compound 176, 2-(((2-(1H-indol-4-yl)-4-morpholinothieno[3,2-d]pyrimidin-6-yl)methyl)(methyl)amino)-N-hydroxypyrimidine-5-carboxamide]	< 100 nM	100 to 1000 nM	200 to 212 °C
CNc1ccc(-c2nc(N3CCOCC3)c3sc(S(=O)(=O)NCC4CCN(c5ncc(C(=O)NO)cn5)CC4)cc3n2)cn1 [Compound 310, N-Hydroxy-2-(4-((2-(6-(methylamino)pyridin-3-yl)-4-morpholinothieno[3,2-d]pyrimidine-6-sulfonamido)methyl)piperidin-1-yl)pyrimidine-5-carboxamide]	< 100 nM	< 100 nM	190 to 197 °C
CN(Cc1cc2nc(-c3ccc(CN)cc3)nc(N3CCOCC3)c2s1)c1ncc(C(=O)NO)cn1 [Compound 135, 2-(((2-(4-(aminomethyl)phenyl)-4-morpholinothieno[3,2-d]pyrimidin-6-yl)methyl)(methyl)amino)-N-hydroxypyrimidine-5-carboxamide]	< 100 nM	100 to 1000 nM	184 to 186 °C
CN(Cc1cc2nc(-c3ccc(OCCN)nc3)nc(N3CCOCC3)c2s1)c1ncc(C(=O)NO)cn1 [Compound 259, 2-(((2-(6-(2-Aminoethoxy)pyridin-3-yl)-4-morpholinothieno[3,2-d]pyrimidin-6-yl)methyl)(methyl)amino)-N-hydroxypyrimidine-5-carboxamide]	< 100 nM	> 10000 nM	110 to 115 °C
Cc1ccc(-c2nc(N3CCOCC3)c3sc(CN(C)c4ncc(C(=O)NO)cn4)cc3n2)cc1 [Compound 201, N-hydroxy-2-(methyl((4-morpholino-2-p-tolylthieno[3,2-d]pyrimidin-6-yl)methyl)amino)pyrimidine-5-carboxamide]	< 100 nM	100 to 1000 nM	170 to 172 °C
Nc1ccc(-c2nc(N3CCOCC3)c3sc(S(=O)(=O)Nc4ncc(C(=O)NO)cn4)cc3n2)cc1 [Compound 271, 2-[2-(4-Amino-phenyl)-4-morpholin-4-yl-thieno[3,2-d]pyrimidine-6-sulfonylamino]-pyrimidine-5-carboxylic acid hydroxyamide]	< 100 nM	< 100 nM	197 to 205 °C
CS(=O)(=O)N1CCN(Cc2cc3nc(-c4cccc5c4cnn5CCCCC(=O)NO)nc(N4CCOCC4)c3s2)CC1 [Compound 3, N-hydroxy-5-(4-(6-((4-(methylsulfonyl)piperazin-1-yl)methyl)-4-morpholinothieno[3,2-d]pyrimidin-2-yl)-1H-indazol-1-yl)pentanamide]	–	–	139 to 143 °C
O=C(CCCCN1CCN(Cc2cc3nc(-c4cccc5[nH]ncc45)nc(N4CCOCC4)c3s2)CC1)NO [Compound 11, 5-(4-((2-(1H-indazol-4-yl)-4-morpholinothieno[3,2-d]pyrimidin-6-yl)methyl)piperazin-1-yl)-N-hydroxypentanamide]	1000 to 10000 nM	–	125 to 127 °C
NCCN(Cc1cc2nc(-c3cccc4[nH]ncc34)nc(N3CCOCC3)c2s1)c1ncc(C(=O)NO)cn1 [Compound 94]	< 100 nM	< 100 nM	–
COc1ccc(-c2nc(N3CCOCC3)c3sc(Nc4ncc(C(=O)NO)cn4)cc3n2)cn1 [Compound 253]	100 to 1000 nM	< 100 nM	–
CC(=O)NCCN(Cc1cc2nc(-c3cccc4[nH]ncc34)nc(N3CCOCC3)c2s1)c1ncc(C(=O)NO)cn1 [Compound 96]	< 100 nM	< 100 nM	–
CCCc1nc2cc(/C=C/C(=O)NO)ccc2n1CCN(C)Cc1cc2nc(-c3ccc(NC)nc3)nc(N3CCOCC3)c2s1 [Compound 322]	100 to 1000 nM	100 to 1000 nM	–
CN(Cc1cc2nc(-c3cnc(C(N)=O)nc3)nc(N3CCOCC3)c2s1)c1ncc(C(=O)NO)cn1 [Compound 122]	< 100 nM	< 100 nM	–
CNc1ccc(-c2nc(N3CCOCC3)c3sc(C(C)(C)N(C)c4ncc(C(=O)NO)cn4)cc3n2)cn1 [Compound 241]	< 100 nM	100 to 1000 nM	–
CN(Cc1cc2cc(-c3cccc4[nH]ncc34)nc(N3CCOCC3)c2s1)c1ncc(C(=O)NO)cn1 [Compound 74]	< 100 nM	100 to 1000 nM	–
C/C(=N/O)c1cccc(-c2nc(N3CCOCC3)c3sc(CN(C)c4ncc(C(=O)NO)cn4)cc3n2)c1 [Compound 299]	< 100 nM	100 to 1000 nM	–
CN(Cc1cc2nc(-c3cccc(C(=O)OC(C)(C)C)c3)nc(N3CCOCC3)c2s1)c1ncc(C(=O)NO)cn1 [Compound 304]	< 100 nM	1000 to 10000 nM	–
COc1ccc(-c2nc(N3CCOCC3)c3sc(C(C)(C)Nc4ncc(C(=O)NO)cn4)cc3n2)cn1 [Compound 250, N-Hydroxy-2-(2-(2-(6-methoxypyridin-3-yl)-4-morpholino-thieno[3,2-d]pyrimidin-6-yl)propan-2-ylamino)pyrimidine-5-carboxamide]	< 100 nM	< 100 nM	–
CNc1ccc(-c2nc(N3CCOCC3)c3sc(NCCCCC(=O)NO)cc3n2)cn1 [Compound 228, N-Hydroxy-5-(2-(6-(methylamino)pyridin-3-yl)-4-morpholino-thieno[3,2-d]pyrimidin-6-ylamino)pentanamide]	< 100 nM	< 100 nM	–
